Laboratory results: patent US20140005163A1 (NOVARTIS AG, priority 2010, published 2014)

What was measured:
PI3K alpha = biological target: T1, PI3K alpha (Homo sapiens, UniProt P42336); assay: PI3K alpha kinase assay (Kinase-Glo luminescence); assay type: biochemical
T1 construct: p85(iSH2) fusion partner (see partner chain) (N); His tag (C); made in house; host or cells: baculovirus; Tn5 (Trichoplusia ni) or TiniPro insect cells
In short: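 IC50 is taken from a four-parameter logistic fit of 8-point dilutions, with Kinase-Glo luminescence reporting residual ATP. Reactions ran 60 min at room temperature in TRIS pH 7.5 buffer with MgCl2, NaCl, CHAPS and DTT. Final levels were 10 nM enzyme, 1 μM ATP and 10 μg/mL PI.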

PI3K beta = biological target: T2, PI3K beta (Homo sapiens, UniProt P42338); assay: PI3K beta kinase assay (Kinase-Glo luminescence); assay type: biochemical
T2 construct: for the full-length p110-b subunit are generated and fused by overlapping PCR; p85(iSH2) fusion partner (see partner chain) (N); His tag (C); made in house; host or cells: baculovirus; Tn5 (Trichoplusia ni) or TiniPro insect cells
T2 sequence (P42338 with tags, fused parts or gaps limits assumed): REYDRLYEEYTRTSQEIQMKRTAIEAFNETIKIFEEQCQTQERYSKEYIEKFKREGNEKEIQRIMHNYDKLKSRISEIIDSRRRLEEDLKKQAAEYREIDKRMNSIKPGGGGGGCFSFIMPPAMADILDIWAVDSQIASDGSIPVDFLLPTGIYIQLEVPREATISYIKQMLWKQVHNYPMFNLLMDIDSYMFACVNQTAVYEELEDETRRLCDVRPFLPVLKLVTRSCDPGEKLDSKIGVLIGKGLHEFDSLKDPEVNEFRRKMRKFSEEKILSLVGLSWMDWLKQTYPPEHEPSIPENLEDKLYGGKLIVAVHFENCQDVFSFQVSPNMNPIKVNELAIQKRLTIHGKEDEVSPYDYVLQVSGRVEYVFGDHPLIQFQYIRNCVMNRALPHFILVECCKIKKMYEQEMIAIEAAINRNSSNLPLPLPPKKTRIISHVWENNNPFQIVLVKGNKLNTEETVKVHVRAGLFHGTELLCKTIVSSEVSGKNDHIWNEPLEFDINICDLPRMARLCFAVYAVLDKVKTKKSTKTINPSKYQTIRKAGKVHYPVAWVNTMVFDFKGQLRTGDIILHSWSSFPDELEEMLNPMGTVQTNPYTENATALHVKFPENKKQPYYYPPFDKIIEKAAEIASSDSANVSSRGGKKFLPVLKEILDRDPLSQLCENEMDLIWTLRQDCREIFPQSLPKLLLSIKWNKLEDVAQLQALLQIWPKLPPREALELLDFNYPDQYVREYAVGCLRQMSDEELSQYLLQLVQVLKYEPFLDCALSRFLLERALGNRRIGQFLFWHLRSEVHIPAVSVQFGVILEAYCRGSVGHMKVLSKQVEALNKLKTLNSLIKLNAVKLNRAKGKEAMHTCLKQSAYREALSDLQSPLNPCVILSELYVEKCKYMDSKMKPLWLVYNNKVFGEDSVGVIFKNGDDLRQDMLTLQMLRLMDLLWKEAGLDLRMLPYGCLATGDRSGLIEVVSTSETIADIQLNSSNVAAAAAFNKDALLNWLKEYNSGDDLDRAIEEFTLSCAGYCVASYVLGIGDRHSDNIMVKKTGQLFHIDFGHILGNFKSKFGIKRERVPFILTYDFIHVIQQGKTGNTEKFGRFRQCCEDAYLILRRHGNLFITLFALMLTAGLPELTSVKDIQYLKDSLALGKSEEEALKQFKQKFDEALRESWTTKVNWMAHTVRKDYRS
In short: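 p110β full-length/p85 iSH2 construct (BV-949), 25 nM, with 1 μM ATP and 10 μg/mL phosphatidylinositol in 10 mM Tris pH 7.5, 3 mM MgCl2, 50 mM NaCl, 0.05% CHAPS, 1 mM DTT. 60 min at room temperature; ATP remaining read by Kinase-Glo luminescence. IC50 from 8-point four-parameter logistic fit.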

mTOR = biological target: T3, mTOR (Homo sapiens, UniProt P42345); assay: Biochemical assay for m-TOR by TR-FRET; settings: 8 μM ATP, 400 nM GFP-4EBP1, 0.5 nM mTOR
T3 construct: purchased Invitrogen Corporation (Carlsbad/CA, USA) PV4753
T3 sequence (P42345 1360-2549 limits assumed): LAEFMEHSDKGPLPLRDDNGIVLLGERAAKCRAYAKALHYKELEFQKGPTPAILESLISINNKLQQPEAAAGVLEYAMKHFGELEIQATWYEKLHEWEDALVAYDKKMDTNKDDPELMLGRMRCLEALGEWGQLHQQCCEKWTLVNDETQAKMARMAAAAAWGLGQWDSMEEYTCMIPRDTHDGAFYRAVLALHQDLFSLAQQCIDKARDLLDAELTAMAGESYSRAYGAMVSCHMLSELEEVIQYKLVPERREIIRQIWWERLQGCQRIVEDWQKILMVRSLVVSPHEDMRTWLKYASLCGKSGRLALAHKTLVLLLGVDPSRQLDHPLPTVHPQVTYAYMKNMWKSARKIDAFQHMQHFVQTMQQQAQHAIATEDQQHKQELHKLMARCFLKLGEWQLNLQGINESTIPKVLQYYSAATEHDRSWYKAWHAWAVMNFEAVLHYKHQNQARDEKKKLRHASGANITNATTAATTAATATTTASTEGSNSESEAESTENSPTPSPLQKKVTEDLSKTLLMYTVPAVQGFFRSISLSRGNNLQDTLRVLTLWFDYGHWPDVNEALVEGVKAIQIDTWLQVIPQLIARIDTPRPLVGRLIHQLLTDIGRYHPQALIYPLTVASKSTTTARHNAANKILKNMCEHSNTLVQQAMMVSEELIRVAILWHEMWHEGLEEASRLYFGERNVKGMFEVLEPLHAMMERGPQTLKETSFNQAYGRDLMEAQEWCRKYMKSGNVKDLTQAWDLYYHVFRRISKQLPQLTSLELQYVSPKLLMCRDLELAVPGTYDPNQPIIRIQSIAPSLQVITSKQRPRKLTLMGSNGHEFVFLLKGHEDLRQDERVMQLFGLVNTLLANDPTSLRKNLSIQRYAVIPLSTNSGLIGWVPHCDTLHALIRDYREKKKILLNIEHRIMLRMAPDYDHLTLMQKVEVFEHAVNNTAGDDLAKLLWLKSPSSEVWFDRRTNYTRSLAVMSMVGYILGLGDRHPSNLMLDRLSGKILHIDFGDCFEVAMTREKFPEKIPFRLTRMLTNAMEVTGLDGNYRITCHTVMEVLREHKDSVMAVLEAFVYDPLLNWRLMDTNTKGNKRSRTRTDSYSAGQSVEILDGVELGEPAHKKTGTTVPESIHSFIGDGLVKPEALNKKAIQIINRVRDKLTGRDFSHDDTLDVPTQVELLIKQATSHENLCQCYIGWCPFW
In short: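 mTOR (0.5 nM) was incubated at rt with ATP (8 μM final) and GFP-4EBP1 (400 nM final) in 50 mM HEPES pH 7.5, 10 mM MnCl2, 50 mM NaCl, 1 mM EGTA, 1 mM DTT. EDTA stop with Tb3+-anti-p4EBP1 [pThr46] antibody (0.5 nM); TR-FRET read 15 min later.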

T1 sequence (P42336 with tags, fused parts or gaps limits assumed): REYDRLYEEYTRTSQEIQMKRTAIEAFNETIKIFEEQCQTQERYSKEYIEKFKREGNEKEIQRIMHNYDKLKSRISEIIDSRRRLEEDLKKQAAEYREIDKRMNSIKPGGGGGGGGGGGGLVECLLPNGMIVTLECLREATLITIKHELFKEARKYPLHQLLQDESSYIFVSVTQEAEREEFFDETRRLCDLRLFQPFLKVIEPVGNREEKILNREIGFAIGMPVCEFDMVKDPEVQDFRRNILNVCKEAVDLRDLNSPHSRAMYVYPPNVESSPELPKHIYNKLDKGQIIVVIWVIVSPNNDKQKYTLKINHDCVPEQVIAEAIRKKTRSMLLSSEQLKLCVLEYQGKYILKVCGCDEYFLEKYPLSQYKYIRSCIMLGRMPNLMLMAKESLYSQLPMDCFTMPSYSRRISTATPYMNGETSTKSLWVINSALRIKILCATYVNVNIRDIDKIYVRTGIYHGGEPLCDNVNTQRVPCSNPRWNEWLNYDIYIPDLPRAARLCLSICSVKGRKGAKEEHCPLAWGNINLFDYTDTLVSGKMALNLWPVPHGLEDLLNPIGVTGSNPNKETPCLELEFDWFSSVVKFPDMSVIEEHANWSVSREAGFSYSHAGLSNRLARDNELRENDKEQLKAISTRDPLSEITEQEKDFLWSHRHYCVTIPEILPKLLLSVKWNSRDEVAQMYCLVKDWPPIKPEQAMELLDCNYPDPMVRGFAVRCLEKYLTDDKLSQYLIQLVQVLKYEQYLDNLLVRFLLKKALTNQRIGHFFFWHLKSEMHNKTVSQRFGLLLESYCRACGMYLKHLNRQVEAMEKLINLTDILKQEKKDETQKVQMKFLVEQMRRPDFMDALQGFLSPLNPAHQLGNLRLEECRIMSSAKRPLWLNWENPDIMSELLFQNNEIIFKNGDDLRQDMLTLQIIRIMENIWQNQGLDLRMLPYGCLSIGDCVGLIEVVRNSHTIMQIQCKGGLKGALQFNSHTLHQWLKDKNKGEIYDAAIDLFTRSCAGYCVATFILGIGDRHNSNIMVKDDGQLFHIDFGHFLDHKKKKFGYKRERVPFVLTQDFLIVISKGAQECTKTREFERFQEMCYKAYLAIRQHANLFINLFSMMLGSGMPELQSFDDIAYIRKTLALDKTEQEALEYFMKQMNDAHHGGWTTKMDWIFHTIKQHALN

SMILES | IC50 (PI3K alpha) | IC50 (PI3K beta) | IC50 (mTOR)
Cc1nn(C)cc1-n1c(=O)n(C)c2cnc3ccc(-c4ccccc4)cc3c21 [Example 37.1, 1-(1,3-Dimethyl-1H-pyrazol-4-yl)-3-methyl-8-phenyl-1,3-dihydro-imidazo[4,5-c]quinolin-2-one] | 34 nM | 970 nM | 213 nM
Cc1nn(C)cc1-n1c(=O)n(C)c2cnc3ccc(-c4cccc(S(C)(=O)=O)c4)cc3c21 [Example 40, 1-(1,3-Dimethyl-1H-pyrazol-4-yl)-8-(3-methanesulfonyl-phenyl)-3-methyl-1,3-dihydro-imidazo[4,5-c]quinolin-2-one] | 20 nM | 34 nM | 71 nM
Cc1nn(C)cc1-n1c(=O)n(C)c2cnc3ccc(-c4ccc(C(N)=O)cc4)cc3c21 [Example 41, 4-[1-(1,3-Dimethyl-1H-pyrazol-4-yl)-3-methyl-2-oxo-2,3-dihydro-1H-imidazo[4,5-c]quinolin-8-yl]-benzamide] | < 9 nM | 112 nM | 5 nM
Cc1nn(C)cc1-n1c(=O)n(C)c2cnc3ccc(-c4cccc(C(N)=O)c4)cc3c21 [Example 46, 3-[1-(1,3-Dimethyl-1H-pyrazol-4-yl)-3-methyl-2-oxo-2,3-dihydro-1H-imidazo[4,5-c]quinolin-8-yl]-benzamide] | 50 nM | 563 nM | 231 nM
Cc1nn(C)cc1-n1c(=O)n(C)c2cnc3ccc(-c4ccc5c(c4)CC(=O)N5)cc3c21 [Example 49, 1-(1,3-Dimethyl-1H-pyrazol-4-yl)-3-methyl-8-(2-oxo-2,3-dihydro-1H-indol-5-yl)-1,3-dihydro-imidazo[4,5-c]quinolin-2-one] | 47 nM | 506 nM | 46 nM
Cc1nn(C)cc1-n1c(=O)n(C)c2cnc3ccc(-c4cccc(S(=O)(=O)N(C)C)c4)cc3c21 [Example 53.1, 3-[1-(1,3-Dimethyl-1H-pyrazol-4-yl)-3-methyl-2-oxo-2,3-dihydro-1H-imidazo[4,5-c]quinolin-8-yl]-N,N-dimethyl-benzenesulfonamide] | 16 nM | 51 nM | 107 nM
COCc1cncc(-c2ccc3ncc4c(c3c2)n(-c2cn(C)nc2C)c(=O)n4C)c1 [Example 54.1, 1-(1,3-Dimethyl-1H-pyrazol-4-yl)-8-(5-methoxymethyl-pyridin-3-yl)-3-methyl-1,3-dihydro-imidazo[4,5-c]quinolin-2-one] | 17 nM | 28 nM | 79 nM
CCOc1cncc(-c2ccc3ncc4c(c3c2)n(-c2cn(C)nc2Cl)c(=O)n4C)c1 [Example 56.4, 1-(3-Chloro-1-methyl-1H-pyrazol-4-yl)-8-(5-ethoxy-pyridin-3-yl)-3-methyl-1,3-dihydro-imidazo[4,5-c]quinolin-2-one] | 5 nM | 6 nM | 16 nM
Cc1nn(C)cc1-n1c(=O)n(C)c2cnc3ccc(-c4cncc(OC(C)C)c4)cc3c21 [Example 58.1, 1-(1,3-Dimethyl-1H-pyrazol-4-yl)-8-(5-isopropoxy-pyridin-3-yl)-3-methyl-1,3-dihydro-imidazo[4,5-c]quinolin-2-one] | 6 nM | 7 nM | 14 nM
CCN(C)C(=O)Cn1cc(-n2c(=O)n(C)c3cnc4ccc(-c5cncc(OC(C)C)c5)cc4c32)c(C)n1 [Example 58.5, N-Ethyl-2-{4-[8-(5-isopropoxy-pyridin-3-yl)-3-methyl-2-oxo-2,3-dihydro-imidazo[4,5-c]quinolin-1-yl]-3-methyl-pyrazol-1-yl}-N-methyl-acetamide] | 7 nM | 69 nM | 23 nM
COc1ncc(-c2ccc3ncc4c(c3c2)n(-c2cn(C)nc2C)c(=O)n4C)cc1NC(C)=O [Example 64, N-{5-[1-(1,3-Dimethyl-1H-pyrazol-4-yl)-3-methyl-2-oxo-2,3-dihydro-1H-imidazo[4,5-c]quinolin-8-yl]-2-methoxy-pyridin-3-yl}-acetamide] | 87 nM | 322 nM | 30 nM
COc1ncc(-c2ccc3ncc4c(c3c2)n(-c2cn(C)nc2C)c(=O)n4C)cc1[N+](=O)[O-] [Example 66, 1-(1,3-dimethyl-1H-pyrazol-4-yl)-8-(6-methoxy-5-nitro-pyridin-3-yl)-3-methyl-1,3-dihydro-imidazo[4,5-c]quinolin-2-one] | 36 nM | 56 nM | 207 nM
Cc1nn(C)cc1-n1c(=O)n(C)c2cnc3ccc(-c4cnc5c(c4)nnn5C)cc3c21 [Example 72, 1-(1,3-Dimethyl-1H-pyrazol-4-yl)-3-methyl-8-(3-methyl-3H-[1,2,3]triazolo[4,5-b]pyridin-6-yl)-1,3-dihydro-imidazo[4,5-c]quinolin-2-one] | 29 nM | 112 nM | 179 nM
Cc1nn(C)cc1-n1c(=O)n(C)c2cnc3ccc(-c4cnc5c(c4)ncn5C)cc3c21 [Example 74, 1-(1,3-Dimethyl-1H-pyrazol-4-yl)-3-methyl-8-(3-methyl-3H-imidazo[4,5-b]pyridin-6-yl)-1,3-dihydro-imidazo[4,5-c]quinolin-2-one] | 20 nM | 370 nM | 30 nM
Cc1ncc(-c2ccc3ncc4c(c3c2)n(-c2cn(C)nc2C)c(=O)n4C)cc1OC(C)C [Example 84.1, 1-(1,3-Dimethyl-1H-pyrazol-4-yl)-8-(5-isopropoxy-6-methyl-pyridin-3-yl)-3-methyl-1,3-dihydro-imidazo[4,5-c]quinolin-2-one] | 6 nM | 8 nM | 4 nM
CCNc1cc(-c2ccc3ncc4c(c3c2)n(-c2c(C)nn(CC(=O)N(C)C)c2C)c(=O)n4C)cnc1C [Example 87.5, 2-{4-[8-(5-Ethylamino-6-methyl-pyridin-3-yl)-3-methyl-2-oxo-2,3-dihydro-imidazo[4,5-c]quinolin-1-yl]-3,5-dimethyl-pyrazol-1-yl}-N,N-dimethyl-acetamide] | 43 nM | 335 nM | 29 nM
CCNc1cc(-c2ccc3ncc4c(c3c2)n(-c2c(C)nn(CCOC)c2C)c(=O)n4C)cnc1OC [Example 90.2, 8-(5-Ethylamino-6-methoxy-pyridin-3-yl)-1-[1-(2-methoxy-ethyl)-3,5-dimethyl-1H-pyrazol-4-yl]-3-methyl-1,3-dihydro-imidazo[4,5-c]quinolin-2-one] | 44 nM | 115 nM | 129 nM
Cc1nn(C)cc1-n1c(=O)n(C)c2cnc3ccc(-c4cnc5cc[nH]c5c4)cc3c21 [Example 99, 1-(1,3-Dimethyl-1H-pyrazol-4-yl)-3-methyl-8-(1H-pyrrolo[3,2-b]pyridin-6-yl)-1,3-dihydro-imidazo[4,5-c]quinolin-2-one] | 16 nM | 33 nM | < 3 nM
Cc1nn(C)cc1-n1c(=O)n(C)c2cnc3ccc(-c4ccc(OCCO)nc4)cc3c21 [Example 107, 1-(1,3-Dimethyl-1H-pyrazol-4-yl)-8-[6-(2-hydroxy-ethoxy)-pyridin-3-yl]-3-methyl-1,3-dihydro-imidazo[4,5-c]quinolin-2-one] | 17 nM | 95 nM | 60 nM
CCOc1ccc(-c2ccc3ncc4[nH]c(=O)n(-c5cn(C)nc5C)c4c3c2)cn1 [Example 110, 1-(1,3-Dimethyl-1H-pyrazol-4-yl)-8-(6-ethoxy-pyridin-3-yl)-1,3-dihydro-imidazo[4,5-c]quinolin-2-one] | 5 nM | 137 nM | 14 nM
